We go through 90 molecules from a melting point compilation (Tetko et al.; mined from patent text by program, amines drawn as free bases though some values may be those of a salt).

For orientation: melting point means the temperature of the solid-liquid transition.

`O=C(C#Cc1ccccc1)Nc1nc2ccccc2s1`: the melting point lay within 174 to 176 °C.
In turn, `COP(=S)(OC)Oc1ncn(-c2ccccn2)n1` gave a melting point of 88 to 91 °C.
`CCSC(=S)SC1NC(=O)C1C(C)C` (stereo not given) displayed a melting point of 65 to 66 °C.
In turn, `Cc1cccc(C)c1-n1cc(C#N)c(=O)n(SC(Cl)(Cl)Cl)c1=O` had a melting point of 223 to 225 °C.
`COc1cccc(S(=O)(=O)N2CCCC2=O)c1`: the melting point lay within 108 to 109 °C.
For `CC(=O)CC(C)c1ccc(-c2ccccc2)c(F)c1` (stereo not given), the melting point is 85 °C.
Turning to `O=C(Nc1ncco1)c1cnc2c(C(F)(F)F)cccc2c1O`, the melting point turned out to be 304 °C.
`COC(=O)Cc1ccnc(NC=O)n1` showed a melting point of 103 to 107 °C.
With `CN1CCN(C2=N/C(=C\c3c[nH]c4ncc(-c5ccccc5)cc34)C(=O)N2)CC1`, the melting point came to 304 °C.
The result for `CC(C)(C)c1ccc(C(=O)Nc2cn3cc(-n4cccc4)ccc3n2)cc1` reads 274 to 275 °C; that for `CCCCC(C)(CC)C(=O)C(Oc1ccc(-c2ccccc2)cc1)n1cnnc1` (stereo not given), 67 to 68 °C; that for `Cc1oc(-c2ccccc2)nc1COc1ccc(COc2ccccc2CC(=O)O)cn1`, 123 to 125 °C.
Molecule `COc1ccc(S(=O)(=O)Cl)c2c3ccccc3n(C=O)c12` returned a melting point of 201 to 203 °C.
In turn, `COc1cc(OC)c(/C=C2/C(=O)NC(=O)/C2=C/c2ccccc2)c(OC)c1` returned a melting point of 246 to 248 °C.
Turning to `CCCCc1ncc(/C=C2\C(=O)N(CC(=O)OCC)c3c(OC)cccc32)n1Cc1ccc(C(=O)OC)cc1`, the melting point lay within 157 to 158 °C.
For `CNC(=O)N1CC(Oc2ccc(Cl)cc2Cl)C1`, the melting point was in the range of 140 to 141 °C.
`O=C(O)CCCCCO/N=C/c1cccnc1` registered a melting point of 117 °C.
`NC(=O)C(=O)NC(C(=O)O)c1ccccc1` (stereo not given) showed a melting point of 193 °C.
`CCc1nc(/C=C/c2cn(-c3ccccc3)nc2OCc2ccc(OCc3nc(-c4ccc(CC(=O)O)cc4)oc3C)c(OC)c2)cs1`: the melting point lay in the range of 123 to 124 °C.
`CC#CC(O)(Cn1cncn1)c1ccc(Oc2ccc(Cl)cc2)cc1Cl` (stereo not given): the melting point is 137 °C.
As for `CCCCN(CC(=O)N1c2ccccc2N(C)C(=O)c2cnc(-c3ccccc3)nc21)C(C)(C)C`, the melting point fell in the range of 111 to 113 °C.
`C[C@H](CNC(=O)c1c(Cl)ccc2nc(N3CCC(C(=O)O)CC3)ccc12)c1ccccc1`: the melting point was in the range of 150 to 153 °C.
For `O=S1(=O)N=C(n2ccnc2)Nc2ccc(C(F)(F)F)cc21`, the melting point lay in the range of 211 to 214 °C.
The molecule `N#Cc1cc(Sc2ccc3ccccc3c2)ccc1[N+](=O)[O-]` displayed a melting point of 139 to 140 °C.
Regarding `Cc1[nH]c2ccc(OS(=O)(=O)c3c(F)cccc3F)cc2c1C1CCN(C)CC1`, the melting point was found to be 138 °C.
Take `O=C(O)COc1cccc2c(CC(O)CCC(c3ccccc3)c3ccccc3)coc12` (stereo not given): the melting point lay within 155 to 157 °C.
Molecule `CCCCc1cc2c3n(ccc-2n1)CC(C)=N3` gave a melting point of 162 °C.
The value for `Clc1ccc2nc(-c3ccccn3)nn2c1` was 118 to 119 °C; that for `O=C(CCCCCl)c1cccc2c1OCCO2` was 32 to 38 °C; that for `COc1ccc(CN(C)CCCCc2ccc(NC(=O)c3cccc4c(=O)cc(-c5ccccc5)[nH]c34)cc2)cc1OC` was 171 °C.
On to `C=CC(=O)NCc1cc(C)c(OCC2CO2)c(C)c1` (stereo not given), for which the melting point lay within 90 to 92 °C.
In turn, `COc1cc(-c2cccs2)ccc1C(=O)C=Cc1ccc(F)c(F)c1` came in with a melting point of 73 to 79 °C.
`Cc1ccc2c3[nH]nc(Cc4ccccc4)c3c(=O)n(-c3ccccc3)c2n1` returned a melting point of 300 to 302 °C.
As to `CCCC1Cc2c3c(c(C)c(C)c2C1=O)OC(C(=O)O)C3` (stereo not given), the melting point was found to be 161 °C.
For `COc1ccc(C2CCN(C(=O)C(N)=O)CC2)cc1OC1CCCC1`, the melting point was 66 to 66.5 °C.
Molecule `N#CCc1cccc(-c2onc3ccccc23)c1` had a melting point of 122 to 124 °C.
In the case of `CCCNC(=O)c1cc2c(nc(C)n2C)c2c1CCC(c1ccccc1)O2` (stereo not given), the melting point stood at 273 °C.
Consider `Nc1ccn(C2CN3CCC2CC3)n1` (stereo not given), for which the melting point fell in the range of 112 to 115 °C.
The result for `CCCN(c1ncnc2[nH]cnc12)n1ccc2ccccc21` reads 90 to 95 °C; that for `CCOC(=O)c1cnn2c(-c3cccc(C(F)(F)F)c3)ccnc12`, 97 to 99 °C.
Molecule `CN1CCN(C(=O)c2ccc3n2Cc2ccc(C(=O)O)cc2N(C(=O)c2ccc(C4CCCCC4)cc2)C3)CC1` registered a melting point of 195 to 210 °C.
The molecule `c1cnc(N2CCN(Cc3ccc(CN4CCN(c5ncccn5)CC4)cc3)CC2)nc1` had a melting point of 193 to 195 °C.
The result for `CC(=O)NCCn1ccc2c1-c1ccc(Cl)cc1CC2` reads 144 to 145 °C.
The result for `CC1=C(c2ccccc2)n2nc(C)c(C(N)=O)c2NC1` reads 208 to 210 °C; that for `COC(=O)C1CCCCN1S(N)(=O)=O` (stereo not given), 72 to 74 °C; that for `Cc1c(NC(=O)c2ccc(-c3ccc(F)cc3)cc2)ccc2cc(CN3CCN(C)CC3)cnc12`, 152 to 153 °C.
`CN(C)c1cc(-c2c[nH]cn2)ccn1` yielded a melting point of 173 to 174 °C.
Molecule `COc1cc(C(C)=O)ccc1OCCN1CCC(c2noc3cc(F)ccc23)CC1` gave a melting point of 132 to 134 °C.
The value for `CNc1cc(C(F)(F)F)on1` was 39 to 41 °C; that for `CCOC(=O)c1c(NCC(=O)c2ccc(C(F)(F)F)cc2)c2c(Cl)cc(Cl)cc2n1C(=O)OC(C)(C)C` was 159 to 160 °C; that for `O=C1[C@H]2CCC[C@H]2N(C(=O)CBr)c2ccc(Cl)cc2N1Cc1ccccc1` (relative stereo) was 163 to 164 °C.
The result for `Cc1noc2cc(F)c(-n3c(=O)cc(C(F)(F)F)[nH]c3=O)cc12` reads 235 to 237 °C.
The molecule `CC(C)Oc1cc(-n2c(=O)cc(C(F)(F)F)[nH]c2=O)c(F)cc1Cl` returned a melting point of 195 to 197 °C.
With `CCOCC(=O)SSc1ccc([N+](=O)[O-])cc1C(Cl)(Cl)Cl`, the melting point was found to be 89 °C.
For `C#CCC(NC(=O)c1ccccc1)C(C)=O` (stereo not given), the melting point fell in the range of 101 to 103 °C.
Take `CCCCCCCCCCCCCCCCSCc1ccc(N(C)C)cc1`: the melting point fell in the range of 41 to 43 °C.
For the molecule `O=C(O)CCCN1CCN(C2=Nc3ccccc3Cc3ccccc32)CC1`, the melting point lay within 207 to 208 °C.
In turn, `O=C(O)c1cnn(-c2c(Cl)cc(C(F)(F)F)cc2Cl)n1` gave a melting point of 155 to 157 °C.
`O=C(O)c1snc(-c2ccccc2)c1O` returned a melting point of 161 to 163 °C.
As to `CC(C)(C)c1cc(C(c2ccc(C#N)cc2)N2CCCCC2)c(O)c(C(C)(C)C)c1` (stereo not given), the melting point is 165 to 166 °C.
`CSc1ccc(C2=C(c3cccc(F)c3)C(=O)C(C)(C)O2)cc1` returned a melting point of 106 °C.
The value for `Cc1ccc(S(=O)(=O)n2cc(/C=C/C(=O)N(C)C)nc2C)cc1` was 162 to 163 °C.
The value for `COc1ccc2c(c1)c(CCC(=O)O)cn2S(=O)(=O)c1ccc(C)cc1` was 172 to 174 °C; that for `O=[N+]([O-])c1ccc(-c2n[nH]c3c2Cc2ccccc2-3)cc1` was 267 to 270 °C.
Molecule `O=C(NCC12CC3CC(CC(C3)C1)C2)c1cc(CCCNCCCO)ncc1Cl` yielded a melting point of 84 to 85 °C.
As for `O=C(O)c1ccc(F)cc1NC(=O)c1ccccc1C(=O)O`, the melting point lay within 187 to 188 °C.
Molecule `Cc1onc(-c2ccccc2)c1C(=O)NCCCN1CCN(c2cc(Cl)ccc2O)CC1` showed a melting point of 92 to 98 °C.
`CCC(C)CC1OC(CC(=O)Nc2ccc(F)c(CCC(=O)O)c2)C(=O)N(CC(C)(C)CO)c2ccc(Cl)cc21` (stereo not given) returned a melting point of 123 to 125 °C.
The molecule `COC(=O)c1ccc(F)cc1SC(=O)N(C)C` yielded a melting point of 190 °C.
`CCC(=O)N1CCSc2cccc(Cl)c2C1` came in with a melting point of 55 to 57 °C.
For `O=C1NC(=O)c2c1c(-c1ccccc1Cl)cc1c2c(Cl)c(CO)n1CCCO`, the melting point lay in the range of 218 to 219 °C.
With `O=Cc1cc(S(=O)(=O)n2ccc3ccccc32)ccc1Br`, the melting point lay within 106 to 108 °C.
`C[Si]1(C)CCCCCCCC[Si](C)(C)O[Si](C)(C)CCCCCCCC[Si](C)(C)O1` returned a melting point of 67 to 69 °C.
Molecule `CN1C(=O)N(CC(CS(=O)(=O)c2ccc(-c3ccc(Cl)cc3)cc2)C(=O)O)C(=O)C1(C)C` (stereo not given) displayed a melting point of 148 to 150 °C.
The result for `N#CNC(=NCCN1CCC(C(=O)c2ccc(F)cc2)CC1)N1CCCCC1` reads 139 to 141 °C; that for `CN1C(=O)C(C)(c2ccc(O)cc2)Sc2ccccc21` (stereo not given), 158 to 160 °C; that for `CS(=O)(=O)c1ccc(-c2ccc(S(=O)(=O)CC(CO)N(O)C=O)cc2)cc1` (stereo not given), 165 to 167 °C.
Turning to `COC1CC(n2cc(C=CBr)c(=O)[nH]c2=O)OC1CF` (stereo not given), the melting point came out at 177 °C.
In turn, `CCCCOc1cc2c(Cl)c(C#N)cnc2cc1OCCOC` had a melting point of 128 to 130 °C.
`CCOC(=O)CC(=O)Nc1ccc(Cl)c(Cl)c1`: the melting point lay within 74 to 75 °C.
The value for `C[C@H]1CN(c2ccc([N+](=O)[O-])cc2)[C@@H](C)CN1` (relative stereo) was 93 to 94 °C; that for `CCCCc1ccc(NC(=O)CCC)c(N=C(NC(=O)OC)SC)c1` was 116 °C; that for `Nc1cc(I)ccc1Nc1cccc(-c2cncnc2)c1` was 166 to 169 °C.
As for `O=S(=O)(C=Cc1ccc(F)cc1)Oc1ccccc1`, the melting point stood at 108 °C.
With `O=C(Nc1ccc(-c2ccc(C(=O)O)cc2)cc1)OCC1c2ccccc2-c2ccccc21`, the melting point was 245 to 248 °C.
`O=C(O)c1nccc(Cl)c1O` yielded a melting point of 228 °C.
As for `CCOc1nn(Cc2ccc(OCc3cn(-c4ccccn4)nc3C)cc2)cc1CCC(=O)O`, the melting point lay in the range of 126 to 127 °C.
The molecule `CC(C(=O)O)c1ccc2c(c1)C(=O)Cc1cc([N+](=O)[O-])ccc1S2` (stereo not given) displayed a melting point of 210 to 211 °C.
Take `CN(C)c1ncnc2c1ncn2Cc1c(F)cccc1Cl`: the melting point lay in the range of 134 to 135 °C.
As to `CCn1cc(C(=O)O)c(=O)c2cnc(N3CCN(C)CC3)nc21`, the melting point fell in the range of 232 to 233 °C.
